The source of these data is PubChem BioAssay (NCI).

Where “and” joins values, the source holds several entries; their conditions need not be identical. Identical values can stand only once.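 These data come from cells grown in 96-well plates and exposed to compound for 48 hours at five concentrations. GI50 marks 50% less growth. TGI marks complete inhibition of growth.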

Among the test systems are DMS 273 small cell lung; KM20L2 colon; M19-MEL melanoma; LXFL 529 NSCLC; DMS 114 small cell lung; MDA-N; SNB-78 CNS; DLD-1 colon; RXF-631 renal; BT-549 breast.
Common to all, as to assay: NCI-60 cell line screen, 48 h

As for `CCN(CC)CC(O)CNc1ccc(NCC2CO2)c2c1C(=O)c1ccccc1C2=O` (stereo not drawn), the TGI in the test with DMS 273 small cell lung was 1.68 µM; in the test with KM20L2 colon it was 8.63 µM; in the test on M19-MEL melanoma, 0.577 µM; in the test with LXFL 529 NSCLC it was 0.247 µM; with DMS 114 small cell lung it was 4.43 µM; in the test with MDA-N it was 2.31 µM. Besides, the TGI in the test on SNB-78 CNS worked out at 2.6 µM; in the test on DLD-1 colon it was 10.7 µM; with RXF-631 renal, 2.24 µM; with BT-549 breast, 4.27 µM. The GI50 in the test with MDA-N was 0.257 µM; in the test with BT-549 breast it was 1.22 µM.

In the case of `O=S(=O)(N/N=C/c1ccc(/C=N/NS(=O)(=O)c2ccccc2)cc1)c1ccccc1`, the TGI in the test with DMS 273 small cell lung, in the test with KM20L2 colon, in the test with M19-MEL melanoma, in the test with DMS 114 small cell lung, in the test on SNB-78 CNS and with RXF-631 renal was over 100 µM in each case.

In the case of `CC/C(C)=C1\CCC(CN2CCOCC2)C1=O` (stereo not drawn), the TGI in the test on DMS 273 small cell lung came to 32.4 µM; in the test with KM20L2 colon, 36.7 µM; in the test on M19-MEL melanoma, 30 µM; in the test with LXFL 529 NSCLC, 23.7 µM; in the test on DMS 114 small cell lung, 18.6 µM; in the test on SNB-78 CNS it was 50.5 µM. Also, the TGI in the test with DLD-1 colon stood at 27 µM.

Consider `CC1C[C@@]2(c3ccccc3)C(=O)CCC[C@H]2N1` (stereo partly drawn), for which the TGI in the test with DMS 273 small cell lung, with KM20L2 colon, with M19-MEL melanoma, in the test with LXFL 529 NSCLC, with DMS 114 small cell lung and in the test on SNB-78 CNS was over 100 µM throughout. Further, the TGI in the test with DLD-1 colon is over 100 µM.

`C=CC1(C(=O)O)CCC(C(C)(C)C)CC1` (stereo not drawn): the TGI in the test on DMS 273 small cell lung, in the test with KM20L2 colon, with M19-MEL melanoma, with LXFL 529 NSCLC, in the test on DMS 114 small cell lung and in the test with SNB-78 CNS was over 100 µM each time. Besides, the TGI with DLD-1 colon and in the test with RXF-631 renal was over 100 µM throughout.

Turning to `O=C1OC(CC(=O)c2ccc(Cl)c(Cl)c2)C(Cl)=C1Cl` (stereo not drawn), the TGI in the test with DMS 273 small cell lung, in the test with KM20L2 colon, in the test with M19-MEL melanoma, in the test with LXFL 529 NSCLC, in the test on DMS 114 small cell lung and in the test with DLD-1 colon was over 100 µM each time. For the same compound, the TGI in the test on RXF-631 renal was over 100 µM.

Turning to `CC(=O)OCC1OC(N2C(=O)C(=O)c3cc(C)ccc32)C(OC(C)=O)C(OC(C)=O)C1OC(C)=O` (stereo not drawn), the TGI in the test with DMS 273 small cell lung, in the test on KM20L2 colon, in the test with M19-MEL melanoma, in the test with LXFL 529 NSCLC, with DMS 114 small cell lung and in the test with SNB-78 CNS was over 100 µM throughout. This compound also displayed a TGI in the test with DLD-1 colon of over 100 µM.

Regarding `CCNC(=O)CCN(C(=O)O)S(=O)(=O)c1ccc(NC(=O)c2ccccc2)cc1`, the TGI with DMS 273 small cell lung was 41.3 µM; in the test on KM20L2 colon, over 100 µM; in the test on M19-MEL melanoma it was over 100 µM; in the test with LXFL 529 NSCLC it was over 100 µM; in the test on DMS 114 small cell lung, over 100 µM; in the test with SNB-78 CNS, over 100 µM. The same compound came in with a TGI in the test with DLD-1 colon of over 100 µM.

With `NNC(=O)/C(=C/c1ccc(Cl)c(Cl)c1)NC(=O)c1ccccc1`, the TGI in the test on KM20L2 colon, in the test with M19-MEL melanoma, in the test on LXFL 529 NSCLC, in the test on DMS 114 small cell lung, in the test with SNB-78 CNS and with DLD-1 colon was over 100 µM throughout. The compound also returned a TGI in the test on RXF-631 renal of over 100 µM.

In the case of `CC1=C(C(=O)Nc2ccccc2C)C(c2ccc(Cl)c(Cl)c2)C(C(=O)Nc2ccccc2C)=C(C)N1`, the TGI in the test on DMS 273 small cell lung is 41.1 µM; in the test on KM20L2 colon it was 34.8 µM; in the test on M19-MEL melanoma, 45.2 µM; in the test with LXFL 529 NSCLC, 43.4 µM; with DMS 114 small cell lung, 41 µM; in the test on SNB-78 CNS it was over 100 µM. Also, the TGI in the test with DLD-1 colon was over 100 µM; in the test with RXF-631 renal, 73.2 µM.

`CCOC(=O)NC(=O)c1cn(CC(=O)NCC(=O)NCC(=O)NCCCN2CCN(CCCNC(=O)CNC(=O)CNC(=O)Cn3cc(C(=O)NC(=O)OCC)c(=O)[nH]c3=O)CC2)c(=O)[nH]c1=O`: the TGI in the test with DMS 273 small cell lung, in the test on KM20L2 colon, in the test on M19-MEL melanoma, in the test on LXFL 529 NSCLC, in the test on DMS 114 small cell lung and in the test on SNB-78 CNS was over 100 µM in each case. The TGI with DLD-1 colon and with RXF-631 renal was over 100 µM each time.

`CCN(CC)CCCC(C)Nc1c2ccc(Cl)cc2nc2ccc(OC)cc12` (stereo not drawn): the TGI in the test with DMS 273 small cell lung stood at 2.04 µM; with KM20L2 colon, 3 µM; in the test on M19-MEL melanoma, 3.14 µM; in the test on LXFL 529 NSCLC, 2.95 µM; with DMS 114 small cell lung, 3.1 µM; in the test on MDA-N it was 3.95 µM. Besides, the TGI in the test on SNB-78 CNS is 11.5 µM; in the test on DLD-1 colon, 4.39 µM; in the test with RXF-631 renal, 3.55 µM; in the test on BT-549 breast, 4.84 µM and 6.51 µM. Moreover, the GI50 with BT-549 breast was 2.17 µM.

Take `COc1cc(Cl)c2c3c(c(C(C)=O)oc13)CCC2`: the TGI in the test with DMS 273 small cell lung, in the test with KM20L2 colon, in the test with M19-MEL melanoma, with LXFL 529 NSCLC, with DMS 114 small cell lung and with SNB-78 CNS was over 100 µM throughout. The TGI in the test on DLD-1 colon and in the test with RXF-631 renal was over 100 µM throughout.

As to `CCOC(=O)C(N)C[S][Sn]([CH3])([CH3])[Cl]` (stereo not drawn), the GI50 in the test with DMS 273 small cell lung was over 100 µM; with KM20L2 colon it was over 100 µM; in the test with M19-MEL melanoma, over 89.1 µM; in the test on LXFL 529 NSCLC it was 28.7 µM; in the test with DMS 114 small cell lung, 97.4 µM; in the test with SNB-78 CNS, over 94.3 µM. In addition, the GI50 in the test on DLD-1 colon is over 100 µM. Also, the TGI in the test with DMS 273 small cell lung, with KM20L2 colon, in the test on M19-MEL melanoma, in the test on LXFL 529 NSCLC, in the test with DMS 114 small cell lung and in the test on SNB-78 CNS was over 100 µM each time. This compound registered a TGI in the test on DLD-1 colon of over 100 µM.

Take `CC[C@@H]1OC2(C)CC(S(=O)(=O)c3ccccc3O)CC1O2` (stereo partly drawn): the TGI in the test with DMS 273 small cell lung, in the test with KM20L2 colon, with M19-MEL melanoma, with LXFL 529 NSCLC, in the test with DLD-1 colon and with RXF-631 renal was over 100 µM each time.

As to `Cc1[nH]c2ccccc2c1C1Cc2ccccc2N1C(=O)/C=C\C(=O)O` (stereo not drawn), the TGI was over 100 µM in the test with DMS 273 small cell lung; over 100 µM in the test with KM20L2 colon; over 100 µM with M19-MEL melanoma; 41.1 µM in the test on LXFL 529 NSCLC; 64.4 µM with DMS 114 small cell lung; over 100 µM in the test with SNB-78 CNS. Further, the TGI in the test on DLD-1 colon and with RXF-631 renal was over 100 µM throughout.

With `CC(C)CS(=O)(=O)/C(=C(\c1ccc(Br)cc1)S(=O)(=O)CC(C)C)c1ccc(Br)cc1`, the TGI with DMS 273 small cell lung, in the test on KM20L2 colon, in the test on M19-MEL melanoma, with LXFL 529 NSCLC, with SNB-78 CNS and in the test on DLD-1 colon was over 100 µM throughout. The compound also gave a TGI in the test on RXF-631 renal of over 100 µM.

Take `COc1ccc(NC(=O)C(=O)C(C(=O)c2ccccc2)C2OC(=O)c3ccccc32)c([N+](=O)[O-])c1` (stereo not drawn): the TGI in the test on DMS 273 small cell lung, in the test on KM20L2 colon, with M19-MEL melanoma, with LXFL 529 NSCLC, with DMS 114 small cell lung and with SNB-78 CNS was over 100 µM each time. For the same compound, the TGI in the test with DLD-1 colon was over 100 µM.

Turning to `NC(=O)C(=Cc1ccc(C(O)P(=O)(O)O)cc1)C(N)=O` (stereo not drawn), the TGI in the test with DMS 273 small cell lung, in the test with KM20L2 colon, in the test on M19-MEL melanoma, in the test with LXFL 529 NSCLC, with DMS 114 small cell lung and in the test with SNB-78 CNS was over 100 µM each time. The TGI with DLD-1 colon and in the test on RXF-631 renal was over 100 µM throughout.
